We go through one compound from PMC3744530, “CTA095, a Novel Etk and Src Dual Inhibitor, Induces Apoptosis in Prostate Cancer Cells and Overcomes Resistance to Src Inhibitors” (PLoS ONE, 2013).

pIC50: −log10 of the molar value.

What is called pIC50 is the IC50 on a negative log10 scale, so that one unit is a factor of ten. Higher therefore signals a small IC50.

Assay [1] deals with Myc mRNA in PC3-AZD20 cells. Description: Real-time PCR of Myc mRNA. It is filed as cell-based, human. To be noted: PC3-AZD20, 10 μM, RT-PCR. On the procedure: (§1) PC3-AZD20 cells were seeded at 10^6 cells/well in 6 well plates overnight. The cells were treated with AZD0530 or CTA095 at 10 μM. Apoptosis was analyzed using Annexin-V FITC apoptosis detection kit. The mRNA levels of Myc and BCL2 were measured using real-time PCR. pEtk, Etk, pSrc, Src, pStat3, Stat3, Myc and BCL2 levels were measured using the corresponding antibodies through a Western blot.
(§2) Figure 12 CTA095 induces apoptosis in Src inhibitor resistant prostate cancer cells through Myc and BCL2 inhibition. PC3-AZD20 (PC3 cell resistant to 20 μM AZD0530) cells were seeded at 10^6 cells/well in 6 well plates overnight. The cells were treated with AZD0530 or CTA095 at 10 μM. Apoptosis was analyzed using Annexin-V FITC apoptosis detection kit (A). The mRNA levels of Myc and BCL2 were measured using real-time PCR (B). pEtk, Etk, pSrc, Src, pStat3, Stat3, Myc and BCL2 levels were measured using the corresponding antibodies through Western blot (C). Columns, mean; bars, standard deviation, n = 3.
A general note: Real-time PCR tracks product formation cycle by cycle.

Another assay concerns PC3-AZD20 cells. The experiment in a line: Annexin-V FITC apoptosis in Src inhibitor resistant cells. The note with it: 10 μM. In kind it is cell-based, human. On the procedure:
as §1, §2

A further assay addresses T1, Src (Homo sapiens, UniProt P12931).
T1 construct: purchased Millipore Inc (Dundee, UK)
Description: Kinase inhibition assay (TLC, 33P-ATP). It is filed as biochemical. On the procedure: (§3) Kinase inhibition was measured using thin-layer-chromatography (TLC). Briefly, purified kinases (20 nM), the corresponding substrate (500 µM, TSFYGRH for Etk, YIYGSFK for the other kinases), and CTA095 (0–10 µM) were incubated in a kinase reaction (100 mM Hepes, pH 7.4, 10 mM MnCl2, 10 mM MgCl2, 1 mM DTT) for 5 min, and the reaction was started by adding 5 μCi ^33P-labeled ATP. The reaction (10 µl) was incubated at room temperature for 1 h and was stopped by adding 10 μL H3PO4. The radioactivity of the peptide substrate was analyzed using TLC as previously described.
(§4) Having isolated a small molecule that inhibits Etk, the next logical step was to determine its specificity for this enzyme. To accomplish this, purified Etk, Btk, Src and Yes were incubated in a kinase reaction buffer with CTA095 (0–1 μM) in the presence of ^33P-labeled ATP and a peptide (YIYGSFK), previously shown to be an excellent substrate for both BTK and Src family kinases. The kinase activity was measured using TLC technique.

Assay [2] relates to Akt phosphorylation in PC3 cells. Description: Western blot of Akt phosphorylation. In kind it is cell-based, human. To be noted: 24 h. On the procedure:
Western blotting was performed as described previously. Proteins were detected using the following antibodies: β-actin (Sigma-Aldrich, Saint Louis, MO), Etk (Santa Cruz Inc., Santa Cruz, CA), pEtk; Src, pSrc; Stat3, pStat3. For phospho-Etk, cells were pre-treated with 100 μM pervanadate for 15 min before harvest.
Figure 4 Inhibition of cell signaling in PC3 cells following treatment with CTA095. Cells were grown in 10 mm plate to 50% confluence and treated with CTA095. Cells were harvested after 24 h. pEtk, Etk, pSrc, Src, pStat3, Stat3, pAkt and Akt levels were measured using the corresponding antibodies by Western blot. One of three similar experiments depicted.
Background: In western blotting, separated proteins are transferred to a membrane and probed.

Assay [3] deals with PC3 cells stably transfected with GFP-LC3. The experiment in a line: Autophagy assay (GFP-LC3 puncta, LC3 immunoblot). It is filed as cell-based, human. The note with it: PC3 GFP-LC3, 5 μM, 24 h. On the procedure:
PC3 cells were stably transfected with GFP-LC3 [16]. Cells were grown in a 6-well plate to 50% confluence and treated with 5 μM CTA095 for 24 h. Autophagy was visualized by GFP-LC3 “puncta” and immunoblot of Endogenous LC3 isoforms.
Figure 6 Induction of autophagy in PC3 cells by CTA095. Cells were grown in 6-well plate to 50% confluence and treated with CTA095. Autophagy was visualized by GFP-LC3 “puncta” (A) and immunoblot of Endogenous LC3 isoforms (B). All experiments were carried out 24 h after treatment.

In another assay the test system is 293 cells (Etk negative). Description: Annexin V-FITC apoptosis in 293 cells. In kind it is cell-based. The note with it: 24 h. On the procedure:
Supplementary file pone.0070910.s005.tif: Figure S5 Induction of apoptosis of 293 cells following treatment with CTA095. 293 cells were seeded at 10^6 cells/ml (2 ml) in a 6-well plate overnight and then treated with CTA095 at the indicated concentrations for 24 h. Apoptosis was analyzed using Annexin-V FITC apoptosis detection kit. Columns, mean; bars, standard deviation, n = 3. (TIF) Click here for additional data file.

A further assay deals with T2, Btk (Homo sapiens, UniProt Q06187).
T2 construct: purchased Millipore Inc (Dundee, UK)
T2 sequence (Q06187 whole entry): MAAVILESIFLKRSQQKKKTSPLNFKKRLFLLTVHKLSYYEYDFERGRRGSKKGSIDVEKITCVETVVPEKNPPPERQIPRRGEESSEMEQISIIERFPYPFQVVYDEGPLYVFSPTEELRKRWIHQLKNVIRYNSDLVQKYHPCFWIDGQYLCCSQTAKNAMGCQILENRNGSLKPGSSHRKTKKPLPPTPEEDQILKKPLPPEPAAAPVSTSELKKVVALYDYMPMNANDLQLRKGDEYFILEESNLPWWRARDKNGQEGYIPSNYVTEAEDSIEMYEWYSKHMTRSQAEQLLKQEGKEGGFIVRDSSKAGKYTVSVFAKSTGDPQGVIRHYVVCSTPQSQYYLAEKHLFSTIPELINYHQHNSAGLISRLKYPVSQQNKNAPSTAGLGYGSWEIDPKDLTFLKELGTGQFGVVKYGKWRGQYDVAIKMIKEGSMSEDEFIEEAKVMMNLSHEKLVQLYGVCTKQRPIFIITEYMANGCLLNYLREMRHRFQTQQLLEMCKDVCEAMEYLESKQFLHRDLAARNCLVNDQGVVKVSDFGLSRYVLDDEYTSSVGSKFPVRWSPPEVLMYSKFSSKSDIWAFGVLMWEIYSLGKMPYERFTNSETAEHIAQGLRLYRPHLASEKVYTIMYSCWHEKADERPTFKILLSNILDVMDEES
Description: Kinase inhibition assay (TLC; Kinase-Glo in Figure S2). It is filed as biochemical. On the procedure: as §3, §4
Supplementary file pone.0070910.s002.tif: Figure S2 Inhibition of Btk by CTA095. Purified Btk (20 nM), CTA095 (0–100 μM), ATP (500 μM) and the peptide substrate (YIYGSFK) were incubated in a kinase reaction. The kinase activity was measured using Kinase-Glo assay kit (Promega Inc.) following the manufacture's instruction. Columns, mean; bars, standard deviation, n = 3. […]
In general terms: In Kinase-Glo more light means more ATP remaining.

The target of another assay is T3, Mer (Homo sapiens, UniProt Q12866).
T3 construct: purchased Millipore Inc (Dundee, UK)
T3 sequence (Q12866 21-999): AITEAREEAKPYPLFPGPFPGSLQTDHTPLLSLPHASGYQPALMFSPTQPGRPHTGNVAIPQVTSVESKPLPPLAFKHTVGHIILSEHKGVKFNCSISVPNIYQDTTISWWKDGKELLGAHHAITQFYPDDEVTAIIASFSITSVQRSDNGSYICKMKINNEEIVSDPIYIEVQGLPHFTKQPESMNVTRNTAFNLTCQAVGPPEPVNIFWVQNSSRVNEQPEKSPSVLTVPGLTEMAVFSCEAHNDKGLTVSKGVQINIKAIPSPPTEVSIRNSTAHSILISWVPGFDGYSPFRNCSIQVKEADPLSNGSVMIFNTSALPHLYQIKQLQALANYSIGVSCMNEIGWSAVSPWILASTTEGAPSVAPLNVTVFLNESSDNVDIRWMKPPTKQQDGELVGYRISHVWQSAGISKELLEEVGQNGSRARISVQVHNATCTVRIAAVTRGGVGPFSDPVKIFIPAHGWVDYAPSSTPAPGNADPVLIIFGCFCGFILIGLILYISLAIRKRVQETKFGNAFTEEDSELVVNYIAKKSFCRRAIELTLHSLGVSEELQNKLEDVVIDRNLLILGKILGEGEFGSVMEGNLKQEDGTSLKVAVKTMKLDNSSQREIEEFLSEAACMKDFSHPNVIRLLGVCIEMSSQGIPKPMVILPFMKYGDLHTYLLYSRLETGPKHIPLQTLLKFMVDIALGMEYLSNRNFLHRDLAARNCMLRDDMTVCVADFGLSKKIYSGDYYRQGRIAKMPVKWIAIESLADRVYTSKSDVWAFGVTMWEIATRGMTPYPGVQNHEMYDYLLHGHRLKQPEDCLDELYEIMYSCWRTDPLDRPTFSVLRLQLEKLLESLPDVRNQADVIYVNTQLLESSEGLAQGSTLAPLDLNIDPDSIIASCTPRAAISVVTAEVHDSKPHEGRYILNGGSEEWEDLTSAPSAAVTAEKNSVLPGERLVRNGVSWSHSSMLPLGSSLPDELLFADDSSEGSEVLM
The experiment in a line: Kinase inhibition assay (TLC). It is filed as biochemical. On the procedure:
as §3
(§5) In addition to the Btk family tyrosine kinases, the inhibitory activity of CTA095 to other kinases, including Lyn, Axl, Mer, EGFR, and Abl, was investigated using a TLC assay.

The target of another assay is Lyn (Homo sapiens, UniProt P07948). The experiment in a line: Kinase inhibition assay (TLC). In kind it is biochemical. On the procedure: as §3, §5
Chain of Lyn (P07948 whole entry, species assumed): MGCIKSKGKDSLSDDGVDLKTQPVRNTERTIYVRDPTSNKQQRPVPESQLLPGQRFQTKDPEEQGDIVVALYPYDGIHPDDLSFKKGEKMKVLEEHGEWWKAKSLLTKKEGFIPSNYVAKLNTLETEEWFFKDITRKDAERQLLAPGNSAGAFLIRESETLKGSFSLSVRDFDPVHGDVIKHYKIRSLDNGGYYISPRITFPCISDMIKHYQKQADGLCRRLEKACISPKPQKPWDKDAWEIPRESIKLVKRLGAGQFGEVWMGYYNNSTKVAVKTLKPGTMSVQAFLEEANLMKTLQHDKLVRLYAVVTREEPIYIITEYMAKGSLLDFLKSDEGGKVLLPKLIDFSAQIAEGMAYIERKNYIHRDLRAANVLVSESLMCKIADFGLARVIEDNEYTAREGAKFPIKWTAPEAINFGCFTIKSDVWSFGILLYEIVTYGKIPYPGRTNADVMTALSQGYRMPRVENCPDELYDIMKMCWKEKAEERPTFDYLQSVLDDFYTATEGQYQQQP
The target of a further assay is EGFR (Homo sapiens, UniProt P00533). The experiment in a line: Kinase inhibition assay (TLC). It is filed as biochemical. On the procedure: as §3, §5
For the next assay, the target named is Itk (Homo sapiens, UniProt Q08881). The experiment in a line: Kinase inhibition assay (TLC). In kind it is biochemical. On the procedure:
as §3, §5

The target in another assay is Abl (Homo sapiens, UniProt P00519). The experiment in a line: Kinase inhibition assay (TLC). In kind it is biochemical. On the procedure: as §3, §5
Chain of Abl (P00519 whole entry, species assumed): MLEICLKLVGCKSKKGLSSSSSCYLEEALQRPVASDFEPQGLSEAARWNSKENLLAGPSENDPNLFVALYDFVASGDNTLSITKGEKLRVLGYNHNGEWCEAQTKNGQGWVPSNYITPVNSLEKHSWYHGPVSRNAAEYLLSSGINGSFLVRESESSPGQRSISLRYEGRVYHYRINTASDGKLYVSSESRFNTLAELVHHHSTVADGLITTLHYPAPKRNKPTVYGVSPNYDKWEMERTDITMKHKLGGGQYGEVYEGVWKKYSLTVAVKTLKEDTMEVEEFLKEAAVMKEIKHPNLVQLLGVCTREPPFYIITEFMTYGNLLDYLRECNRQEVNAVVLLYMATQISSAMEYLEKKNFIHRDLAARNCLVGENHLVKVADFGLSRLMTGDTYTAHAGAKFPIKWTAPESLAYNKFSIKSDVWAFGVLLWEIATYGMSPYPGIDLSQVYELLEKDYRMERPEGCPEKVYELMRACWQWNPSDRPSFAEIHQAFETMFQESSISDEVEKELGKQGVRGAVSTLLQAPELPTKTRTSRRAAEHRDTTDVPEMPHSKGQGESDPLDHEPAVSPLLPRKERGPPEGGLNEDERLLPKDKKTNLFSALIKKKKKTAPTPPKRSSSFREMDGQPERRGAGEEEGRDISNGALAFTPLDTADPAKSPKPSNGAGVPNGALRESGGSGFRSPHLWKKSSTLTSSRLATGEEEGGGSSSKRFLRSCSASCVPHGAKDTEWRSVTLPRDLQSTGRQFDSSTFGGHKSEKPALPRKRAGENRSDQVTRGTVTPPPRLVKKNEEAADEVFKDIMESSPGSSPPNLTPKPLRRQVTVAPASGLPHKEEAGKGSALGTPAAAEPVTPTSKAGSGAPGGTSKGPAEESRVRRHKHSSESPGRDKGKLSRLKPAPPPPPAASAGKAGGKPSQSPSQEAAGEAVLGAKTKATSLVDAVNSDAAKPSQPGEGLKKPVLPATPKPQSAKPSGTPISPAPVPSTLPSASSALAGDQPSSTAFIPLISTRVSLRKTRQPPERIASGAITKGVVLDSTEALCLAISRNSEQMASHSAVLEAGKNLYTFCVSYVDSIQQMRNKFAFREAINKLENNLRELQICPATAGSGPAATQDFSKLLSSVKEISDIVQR
The next assay deals with Axl (Homo sapiens, UniProt P30530). The experiment in a line: Kinase inhibition assay (TLC). In kind it is biochemical. On the procedure:
as §3, §5

T1 sequence (P12931 whole entry): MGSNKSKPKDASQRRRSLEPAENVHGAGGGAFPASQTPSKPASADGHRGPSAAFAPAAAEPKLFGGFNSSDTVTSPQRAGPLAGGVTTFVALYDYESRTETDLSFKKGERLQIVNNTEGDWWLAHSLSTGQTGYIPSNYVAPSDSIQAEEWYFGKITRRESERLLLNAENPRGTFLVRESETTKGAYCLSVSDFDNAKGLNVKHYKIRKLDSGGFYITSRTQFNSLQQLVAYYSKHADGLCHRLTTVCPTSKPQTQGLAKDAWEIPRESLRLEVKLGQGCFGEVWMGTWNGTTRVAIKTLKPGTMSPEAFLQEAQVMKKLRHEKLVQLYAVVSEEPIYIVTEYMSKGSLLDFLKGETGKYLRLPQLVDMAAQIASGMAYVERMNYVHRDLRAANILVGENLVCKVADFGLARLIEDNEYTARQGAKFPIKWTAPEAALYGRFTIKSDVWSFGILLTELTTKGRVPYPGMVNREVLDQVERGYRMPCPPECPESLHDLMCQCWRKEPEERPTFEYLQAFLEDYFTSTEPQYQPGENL
Chain of Itk (Q08881 whole entry, species assumed): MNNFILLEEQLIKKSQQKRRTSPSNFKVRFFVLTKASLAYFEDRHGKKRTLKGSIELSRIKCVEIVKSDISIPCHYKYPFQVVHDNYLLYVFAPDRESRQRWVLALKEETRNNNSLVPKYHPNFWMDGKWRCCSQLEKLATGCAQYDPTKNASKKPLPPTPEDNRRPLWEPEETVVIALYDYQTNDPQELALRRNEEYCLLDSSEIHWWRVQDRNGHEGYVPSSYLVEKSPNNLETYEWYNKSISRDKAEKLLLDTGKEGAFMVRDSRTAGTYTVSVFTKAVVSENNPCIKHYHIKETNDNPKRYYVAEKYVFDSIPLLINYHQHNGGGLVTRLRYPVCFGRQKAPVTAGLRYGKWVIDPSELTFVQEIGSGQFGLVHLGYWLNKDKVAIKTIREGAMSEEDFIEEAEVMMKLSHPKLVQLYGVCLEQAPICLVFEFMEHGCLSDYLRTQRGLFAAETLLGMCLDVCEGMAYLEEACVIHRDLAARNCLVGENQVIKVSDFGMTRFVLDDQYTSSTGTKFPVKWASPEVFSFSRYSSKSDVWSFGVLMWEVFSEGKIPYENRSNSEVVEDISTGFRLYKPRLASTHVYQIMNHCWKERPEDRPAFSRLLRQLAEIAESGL

As to `O=c1[nH]c2cc3nc(-c4ccc5oc6ccccc6c5c4)n(CCCN4CCCCC4)c3cc2nc1-c1ccccc1` [CTA095, 2-(dibenzo[b,d]furan-2-yl)-7-phenyl-1-(3-(piperidin-1-yl)propyl)-1H-imidazo[4,5-g]quinoxalin-6(5H)-one], the “Myc mRNA level” value in assay [1] is reported as “significantly down regulated”. Further, the “apoptosis in PC3-AZD20 cells” value in the assay on PC3-AZD20 cells is “Massive apoptosis was induced”. The pIC50 at Src (TLC assay) is 6.92; at Src (TLC, peptide YIYGSFK, 33P-ATP), around 6.92; against Btk it was below 5.00; on Mer it was below 5.00; against Lyn, below 5.00; on EGFR, below 5.00. The pIC50 against Itk, at Abl and on Axl was below 5.00 throughout. In addition, the Akt phosphorylation result in [2] is on record as “inhibited”. Besides, the “autophagy (GFP-LC3 puncta)” value in [3] is “extensive distinct “puncta” autophagosome morphology”. Moreover, the induction of apoptosis result with 293 cells (Etk negative) is recorded as “resistant to induce apoptosis”.
